Laboratory results as given in PubChem BioAssay (NCI).
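Step 1: Grow cells in 96-well plates. Step 2: Expose to compound for 48 hours at 5 concentrations. Step 3: Interpolate endpoints linearly; if unreached, use highest concentration. The concentration for full growth arrest is given as TGI.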

How the values were obtained:
Assay in all cases: NCI-60 cell line screen, 48 h
HT29 colon = tested on: HT29 colon
SN12C renal = tested on: SN12C renal
U251 CNS = tested on: U251 CNS
OVCAR-5 ovarian = tested on: OVCAR-5 ovarian
EKVX NSCLC = tested on: EKVX NSCLC
DMS 273 small cell lung = tested on: DMS 273 small cell lung
NCI-H23 lung = tested on: NCI-H23 lung
SNB-19 CNS = tested on: SNB-19 CNS
ACHN renal = tested on: ACHN renal
CAKI-1 renal = tested on: CAKI-1 renal
HCT-116 colon = tested on: HCT-116 colon
CCRF-CEM leukemia = tested on: CCRF-CEM leukemia
UO-31 renal = tested on: UO-31 renal
SW-620 colon = tested on: SW-620 colon
IGROV1 ovarian = tested on: IGROV1 ovarian
OVCAR-8 ovarian = tested on: OVCAR-8 ovarian
HL-60(TB) leukemia = tested on: HL-60(TB) leukemia
SK-MEL-28 melanoma = tested on: SK-MEL-28 melanoma
SF-268 CNS = tested on: SF-268 CNS
SF-539 CNS = tested on: SF-539 CNS
A498 renal = tested on: A498 renal
HCC-2998 colon = tested on: HCC-2998 colon
UACC-62 melanoma = tested on: UACC-62 melanoma
M14 melanoma = tested on: M14 melanoma
DLD-1 colon = tested on: DLD-1 colon
MOLT-4 leukemia = tested on: MOLT-4 leukemia
LXFL 529 NSCLC = tested on: LXFL 529 NSCLC
OVCAR-3 ovarian = tested on: OVCAR-3 ovarian
HOP-18 NSCLC = tested on: HOP-18 NSCLC
UACC-257 melanoma = tested on: UACC-257 melanoma
A549 NSCLC = tested on: A549 NSCLC
SK-OV-3 ovarian = tested on: SK-OV-3 ovarian
SNB-75 CNS = tested on: SNB-75 CNS
HCT-15 colon = tested on: HCT-15 colon
SK-MEL-5 melanoma = tested on: SK-MEL-5 melanoma
RXF-631 renal = tested on: RXF-631 renal
NCI-H460 lung = tested on: NCI-H460 lung
COLO 205 colon = tested on: COLO 205 colon
NCI-H226 lung = tested on: NCI-H226 lung
SK-MEL-2 melanoma = tested on: SK-MEL-2 melanoma
786-0 renal = tested on: 786-0 renal
M19-MEL melanoma = tested on: M19-MEL melanoma
SF-295 CNS = tested on: SF-295 CNS
NCI-H522 lung = tested on: NCI-H522 lung
K-562 leukemia = tested on: K-562 leukemia
XF 498 CNS = tested on: XF 498 CNS
MALME-3M melanoma = tested on: MALME-3M melanoma
HOP-92 NSCLC = tested on: HOP-92 NSCLC
KM20L2 colon = tested on: KM20L2 colon
SNB-78 CNS = tested on: SNB-78 CNS
KM12 colon = tested on: KM12 colon
RPMI-8226 leukemia = tested on: RPMI-8226 leukemia
HOP-62 NSCLC = tested on: HOP-62 NSCLC
OVCAR-4 ovarian = tested on: OVCAR-4 ovarian
DMS 114 small cell lung = tested on: DMS 114 small cell lung
TK-10 renal = tested on: TK-10 renal
LOX IMVI melanoma = tested on: LOX IMVI melanoma
RXF 393 renal = tested on: RXF 393 renal
SR leukemia = tested on: SR leukemia

CCCNC(=O)c1cc2ccccc2cc1C(=O)OC
TGI (HT29 colon): > 100 µM
TGI (SN12C renal): > 100 µM
TGI (U251 CNS): > 100 µM
TGI (OVCAR-5 ovarian): > 100 µM
TGI (EKVX NSCLC): > 100 µM
TGI (DMS 273 small cell lung): > 100 µM
TGI (NCI-H23 lung): > 100 µM
TGI (SNB-19 CNS): > 100 µM
TGI (ACHN renal): > 100 µM
TGI (CAKI-1 renal): > 100 µM
TGI (HCT-116 colon): > 100 µM
TGI (CCRF-CEM leukemia): > 100 µM
TGI (UO-31 renal): > 100 µM
TGI (SW-620 colon): > 100 µM
TGI (IGROV1 ovarian): > 100 µM
TGI (OVCAR-8 ovarian): > 100 µM
TGI (HL-60(TB) leukemia): > 100 µM
TGI (SK-MEL-28 melanoma): > 100 µM
TGI (SF-268 CNS): > 100 µM
TGI (SF-539 CNS): > 100 µM
TGI (A498 renal): > 100 µM
TGI (HCC-2998 colon): > 100 µM
TGI (UACC-62 melanoma): > 100 µM
TGI (M14 melanoma): > 100 µM
TGI (DLD-1 colon): > 100 µM
TGI (MOLT-4 leukemia): > 100 µM
TGI (LXFL 529 NSCLC): > 100 µM
TGI (OVCAR-3 ovarian): > 100 µM
TGI (HOP-18 NSCLC): > 100 µM
TGI (UACC-257 melanoma): > 100 µM
TGI (A549 NSCLC): > 100 µM
TGI (SK-OV-3 ovarian): > 100 µM
TGI (SNB-75 CNS): 75.8 µM
TGI (HCT-15 colon): > 100 µM
TGI (SK-MEL-5 melanoma): > 100 µM
TGI (RXF-631 renal): > 100 µM
TGI (NCI-H460 lung): > 100 µM
TGI (COLO 205 colon): > 100 µM
TGI (NCI-H226 lung): > 100 µM
TGI (SK-MEL-2 melanoma): > 100 µM
TGI (786-0 renal): > 100 µM
TGI (M19-MEL melanoma): > 100 µM
TGI (SF-295 CNS): > 100 µM
TGI (NCI-H522 lung): > 100 µM
TGI (K-562 leukemia): > 100 µM
TGI (XF 498 CNS): > 100 µM
TGI (MALME-3M melanoma): > 100 µM
TGI (HOP-92 NSCLC): > 100 µM
TGI (KM20L2 colon): > 100 µM
TGI (SNB-78 CNS): > 100 µM
TGI (KM12 colon): > 100 µM
TGI (RPMI-8226 leukemia): > 100 µM
TGI (HOP-62 NSCLC): > 100 µM
TGI (OVCAR-4 ovarian): > 100 µM
TGI (DMS 114 small cell lung): > 100 µM
TGI (TK-10 renal): > 100 µM

CC(=O)c1ccc(NC(=O)/C(=N\NC(N)=O)C(C#N)CC(C)(C)C=O)cc1 (stereo not given)
TGI (HT29 colon): > 100 µM
TGI (SN12C renal): > 100 µM
TGI (U251 CNS): > 100 µM
TGI (OVCAR-5 ovarian): > 100 µM
TGI (EKVX NSCLC): > 100 µM
TGI (DMS 273 small cell lung): > 100 µM
TGI (NCI-H23 lung): > 100 µM
TGI (SNB-19 CNS): > 100 µM
TGI (ACHN renal): > 100 µM
TGI (CAKI-1 renal): > 100 µM
TGI (HCT-116 colon): > 100 µM
TGI (CCRF-CEM leukemia): > 100 µM
TGI (UO-31 renal): > 100 µM
TGI (SW-620 colon): > 100 µM
TGI (IGROV1 ovarian): > 100 µM
TGI (OVCAR-8 ovarian): > 100 µM
TGI (LOX IMVI melanoma): > 100 µM
TGI (HL-60(TB) leukemia): > 100 µM
TGI (SK-MEL-28 melanoma): > 100 µM
TGI (SF-268 CNS): > 100 µM
TGI (SF-539 CNS): > 100 µM
TGI (A498 renal): > 100 µM
TGI (HCC-2998 colon): > 100 µM
TGI (UACC-62 melanoma): > 100 µM
TGI (M14 melanoma): > 100 µM
TGI (DLD-1 colon): > 100 µM
TGI (MOLT-4 leukemia): > 100 µM
TGI (RXF 393 renal): > 100 µM
TGI (LXFL 529 NSCLC): > 100 µM
TGI (SR leukemia): > 100 µM
TGI (UACC-257 melanoma): > 100 µM
TGI (A549 NSCLC): > 100 µM
TGI (SK-OV-3 ovarian): > 100 µM
TGI (SNB-75 CNS): > 100 µM
TGI (HCT-15 colon): > 100 µM
TGI (SK-MEL-5 melanoma): > 100 µM
TGI (NCI-H460 lung): > 100 µM
TGI (COLO 205 colon): > 100 µM
TGI (NCI-H226 lung): > 100 µM
TGI (SK-MEL-2 melanoma): > 100 µM
TGI (M19-MEL melanoma): > 100 µM
TGI (SF-295 CNS): > 100 µM
TGI (NCI-H522 lung): > 100 µM
TGI (K-562 leukemia): > 100 µM
TGI (XF 498 CNS): > 100 µM
TGI (HOP-92 NSCLC): > 100 µM
TGI (KM20L2 colon): > 100 µM
TGI (SNB-78 CNS): > 100 µM
TGI (KM12 colon): > 100 µM
TGI (RPMI-8226 leukemia): > 100 µM
TGI (HOP-62 NSCLC): > 100 µM
TGI (OVCAR-4 ovarian): > 100 µM
TGI (DMS 114 small cell lung): > 100 µM
TGI (TK-10 renal): > 100 µM
